Literature values as cited in patent US20260097052A1, “NOVEL ORAL CANNABINOID FORMULATIONS” (Esolate Pharmaceuticals Ltd, priority 2023, published 2026).

Conditions: humans

C=C(C)[C@@H]1CCC(C)=C[C@H]1c1c(O)cc(CCCCC)cc1O [CBD, cannabidiol]
Oral bioavailability: approximately 6%
